From patent publication US11680062B2, “3,4-methylenedioxyphenylimidazolylethanonexime ether derivative, preparation method and use thereof, and drug for the treatment of Alzheimer's disease” (NORTHWEST A&F UNIVERSITY, priority 2021, dated 2023) come the findings set out here.

Series [1] deals with NO production in lipopolysaccharide-induced BV-2 microglia. Put plainly: Inhibition of NO production in lipopolysaccharide-induced BV-2 microglia. It is filed as cell-based. The following applies: Mus musculus.
Series [2] relates to 5×FAD transgenic mice. In words: Barnes maze test (learning and memory ability). It is filed as in vivo. The following applies: 5×FAD mice, 4 weeks. On the procedure: (§1) The AD model mice used are 5×FAD transgenic mice, purchased from the Jackson Laboratory (JAX), USA. The transgenic mice have Swedish (K670N/M671L), Florida (I716V) and London (V717I) mutations in amyloid precursor protein (APP), and M146L and L286V mutations in PSEN1.
(§2) All mice were fed and watered ad libitum at 22±2° C. with a humidity of 50±10% and a 12 h light/dark cycle until 6 months old, then the experiment was started. All operations were in accordance with the guidelines of the National Health Administration and the guidelines for the use of laboratory animals. […]
The Barnes maze test is widely used to assess spatial learning and memory abilities. […] When the cylinder was removed, light was given to allow the mice to explore the platform and find the escape box within 180 s, the time when the mice entered the escape box was recorded by a camera-based EthoVision system (Noldus) and recorded as the escape latency. […] The successful escape latency of mice was recorded and analyzed.

For series [3], the system named is 5×FAD transgenic mice. Put plainly: Y maze test (working memory ability). The series is classed as in vivo. The following applies: 5×FAD mice, 4 weeks. As to the method: as §1, §2
The Y maze test is a commonly used test method to assess working memory ability. […] The mice were placed in the center of the Y maze to explore the 3 arms freely for 5 min, all movements were recorded by a camera, and the spontaneous alternation ratio was calculated according to the situation of entering onto each arm.

Series [4] deals with 5×FAD transgenic mice. In words: Elevated plus maze test (anxiety behavior). It is filed as in vivo. The following applies: 5×FAD mice, 4 weeks. On the procedure: as §1, §2
The elevated plus maze is a recognized behavior test used for anxiety behavior assessment. […] The times of entries onto the open arm and the total times were recorded, and the anxiety behavior of the animal was evaluated by the proportion of entries onto the open arm.

For series [5], the system named is 5×FAD transgenic mice. Put plainly: Marble burying test (anxiety behavior). It is filed as in vivo. Particulars: 5×FAD mice, high dose 30 mg/kg/day intraperitoneal, 4 weeks. On the procedure:
as §1, §2
Each mouse was placed in a cage (28×18×12 cm) containing 20 clean marbles (1.5 cm in diameter), evenly distributed on the surface of clean wood chips (4 cm in depth). After 30 min, each mouse was removed from the cage and the number of marbles buried at least two-thirds was counted.

Series [6] has as its system BV-2 microglia. Particulars: mouse.
The test system of series [7] is BV-2 microglia. Put plainly: Cell viability corresponding to the NO production test.
Setting [8] is: read-out: EC50 (inhibitory effect on the NO production).
[9] abbreviates: high dose 30 mg/kg/day intraperitoneal.
Setting [10] is: low dose 15 mg/kg/day intraperitoneal.
Where [11] appears, read: read-out: EC50 (inhibition of NO production).

SMILES strings stand for the structures. Read-outs that look alike come from different tables or passages of the source. Some results are limits rather than exact numbers.

Consider `C#CCO/N=C(\Cn1ccnc1)c1ccc2c(c1)OCO2` [I-1], for which the EC50 (commonly the concentration that produces a half-maximal response) in series [1] (setting [8]) was 2.07 ± 0.56 µM. Also, the “successful escape latency vs 5×FAD-Vehicle group” value is listed as “significantly reduced” with 5×FAD transgenic mice [2] (high dose 30 mg/kg/day intraperitoneal, day 3 and day 4); “significantly reduced” in the series with 5×FAD transgenic mice [2] (low dose 15 mg/kg/day intraperitoneal, day 4). Further, the spontaneous alternation ratio entry with 5×FAD transgenic mice [3] (setting [9]) and in the series on 5×FAD transgenic mice [3] (setting [10]) was “significantly increased” each time. Besides, the “proportion of entries onto the open arm” value with 5×FAD transgenic mice [4] (setting [9]) and with 5×FAD transgenic mice [4] (setting [10]) was “significantly improved” in each case. Further, the “number of marbles buried” value in the series on 5×FAD transgenic mice [5] is “significantly reduced”. Further, the cell viability (commonly a per cent measure of how many cells are alive, often set against a control) in the series on BV-2 microglia [6] was 92.5%.
Take `C=CCO/N=C(\Cn1ccnc1)c1ccc2c(c1)OCO2` [I-3]: in series [1] (setting [8]), the EC50 worked out at 3.42 ± 0.64 µM. The cell viability with BV-2 microglia [6] is on record as 97.8%.
As for `CC(C)=CCO/N=C(\Cn1ccnc1)c1ccc2c(c1)OCO2` [I-5], the melting point (as a rule, the temperature of the solid-liquid transition) lay within 154.3 to 154.9 °C. The EC50 in series [1] (setting [8]) came to 2.76 ± 0.34 µM. The compound also gave a cell viability with BV-2 microglia [6] of 93.3%.
For the compound `c1ccc(CO/N=C(\Cn2ccnc2)c2ccc3c(c2)OCO3)cc1` [I-6], the melting point lay in the range of 186.4 to 187.9 °C. In addition, the EC50 in series [1] (setting [8]) came to 4.43 ± 0.43 µM. In the series on BV-2 microglia [6], this compound had a cell viability of 97.8%.
`FC(F)(F)c1ccc(CO/N=C(\Cn2ccnc2)c2ccc3c(c2)OCO3)cc1` [I-7] registered a melting point of 121.8 to 122.7 °C. Further, in series [1] (setting [8]), the EC50 stood at 2.37 ± 0.17 µM. The compound also had a cell viability in the series on BV-2 microglia [6] of 92.8%.
`FC(F)(F)c1ccccc1CO/N=C(\Cn1ccnc1)c1ccc2c(c1)OCO2` [I-8] had a melting point of 156.3 to 157.5 °C. For the same compound, the EC50 in series [1] (setting [8]) is 2.53 ± 0.47 µM. This compound returned a cell viability in the series with BV-2 microglia [6] of 95.4%.
On to `N#Cc1ccc(CO/N=C(\Cn2ccnc2)c2ccc3c(c2)OCO3)cc1` [I-9], for which the EC50 in series [1] (setting [8]) came to 4.24 ± 1.02 µM. The cell viability in the series on BV-2 microglia [6] turned out to be 91.6%.
For `C(=C\c1ccccc1)/CO/N=C(\Cn1ccnc1)c1ccc2c(c1)OCO2` [I-10], the EC50 in series [1] (setting [11]) and in series [1] (setting [8]) was more than 20 µM in each case. The cell viability in the series on BV-2 microglia [6] was determined as 96.3%.
Regarding `Clc1ccc(CO/N=C(\Cn2ccnc2)c2ccc(Cl)cc2Cl)c(Cl)c1` [oxiconazole], the cell viability in the series with BV-2 microglia [7] is recorded as 96.2%.
As to `O=c1c(O)c(-c2ccc(O)c(O)c2)oc2cc(O)cc(O)c12` [quercetin, reference compound], the EC50 in series [1] (setting [11]) stood at 9.56 µM; in series [1] (setting [8]), 9.56 ± 1.62 µM. The compound also displayed a cell viability in the series with BV-2 microglia [7] of 94.3%.
